One compound from patent US20070184135A1, “Morinda citrifolia-based formulation 5-LOX and 15-LOX” (priority 2003, published 2007) can be followed below.

“And” between values parts separate entries of the source, which are not always exact repeats. Equal values may be shown once.

This experiment has as its target T1, 5-Lipoxygenase (Homo sapiens, UniProt P09917).
T1 construct: Human peripheral blood mononuclear leukocytes (PBML) were isolated through a Ficoll-Paque density gradient; endogenous in cells; host or cells: human peripheral blood mononuclear leukocytes (PBML)
T1 sequence (P09917 1-674): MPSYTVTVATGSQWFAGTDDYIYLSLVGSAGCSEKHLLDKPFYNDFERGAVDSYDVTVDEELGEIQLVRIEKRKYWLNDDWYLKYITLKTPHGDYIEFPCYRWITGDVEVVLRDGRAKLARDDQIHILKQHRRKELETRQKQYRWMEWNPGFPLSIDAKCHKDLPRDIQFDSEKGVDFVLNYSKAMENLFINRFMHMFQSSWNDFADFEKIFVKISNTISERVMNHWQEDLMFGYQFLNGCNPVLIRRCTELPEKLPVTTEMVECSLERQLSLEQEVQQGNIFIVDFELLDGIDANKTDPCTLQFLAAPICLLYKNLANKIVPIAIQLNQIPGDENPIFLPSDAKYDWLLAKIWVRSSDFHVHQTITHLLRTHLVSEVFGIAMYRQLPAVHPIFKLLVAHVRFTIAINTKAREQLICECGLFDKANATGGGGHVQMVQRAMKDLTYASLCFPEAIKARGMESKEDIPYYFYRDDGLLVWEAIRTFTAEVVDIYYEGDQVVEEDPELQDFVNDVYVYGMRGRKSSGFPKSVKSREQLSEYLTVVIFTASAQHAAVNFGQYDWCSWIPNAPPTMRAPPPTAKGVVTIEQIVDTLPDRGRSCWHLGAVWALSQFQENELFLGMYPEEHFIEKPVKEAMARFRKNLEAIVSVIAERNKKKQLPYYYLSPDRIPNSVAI
Nature of the experiment: 5-Lipoxygenase inhibition in human PBML stimulated with A 23187, LTB4 measured by EIA. Format: cell-based. The text has this: Methods employed in this example were adapted from the scientific literature to maximize reliability and reproducibility. […] 110-13 (2000).
In this study, the 5-LOX source was human peripheral blood mononuclear cells (PBMNC) and the substrate was arachidonic acid having a general reaction of: arachidonic acid→5-LOX→5-HPETE→LTB4. Human peripheral blood mononuclear leukocytes (PBML) were isolated through a Ficoll-Paque density gradient. The inhibiting agent was processed Morinda citrifolia puree juice concentrate. Morinda citrifolia was pre-incubated with PBML (5×10^6 cell/ml) in HBSS buffer pH 7.4 at 37° C. for 15 minutes. […] Following neutralization with NaOH and centrifugation, the supernatant LTB4 is measured using an EIA kit.
The supernatant sample was utilized in same assay and protocols as outlined in Example One above, wherein the brown substance obtained was substituted for Morinda citrifolia puree juice.

Turning to `CC(Cc1ccc(O)c(O)c1)C(C)Cc1ccc(O)c(O)c1` (centres unmarked) [NDGA, nordihydroguaretic acid], the Product was 3608.3 pg/well and 3403.4 pg/well (0.03 uM); 2433.3 pg/well (0.1 uM); 1083.1 pg/well and 1106.1 pg/well (0.3 uM); 233.7 pg/well and 217.9 pg/well (1 uM); 134.9 pg/well and 94.3 pg/well (3 uM).
